Holding throughout (assay): Yeast growth assay, specificity profiling
Type in all cases: cell-based
What all share (design): key: “−” indicates no growth restoration i.e. no activity against the particular kinase; “+”, “++”, and “+++” indicate activity detected by restoration of growth, classified into three categories of potency; “+”, “++”, and “+++” indicate activity detected by restoration of growth, classified into three categories of potency; “+”, “++”, and “+++” indicate activity detected by restoration of growth, classified into three categories of potency
Common to all, as to settings: 7 concentrations between 0.2 and 100 μM

In one experiment the target is T1, CSF-1R (Homo sapiens, UniProt P07333).
T1 construct: expressed in transfected cells; host or cells: yeast
T1 sequence (P07333 20-972): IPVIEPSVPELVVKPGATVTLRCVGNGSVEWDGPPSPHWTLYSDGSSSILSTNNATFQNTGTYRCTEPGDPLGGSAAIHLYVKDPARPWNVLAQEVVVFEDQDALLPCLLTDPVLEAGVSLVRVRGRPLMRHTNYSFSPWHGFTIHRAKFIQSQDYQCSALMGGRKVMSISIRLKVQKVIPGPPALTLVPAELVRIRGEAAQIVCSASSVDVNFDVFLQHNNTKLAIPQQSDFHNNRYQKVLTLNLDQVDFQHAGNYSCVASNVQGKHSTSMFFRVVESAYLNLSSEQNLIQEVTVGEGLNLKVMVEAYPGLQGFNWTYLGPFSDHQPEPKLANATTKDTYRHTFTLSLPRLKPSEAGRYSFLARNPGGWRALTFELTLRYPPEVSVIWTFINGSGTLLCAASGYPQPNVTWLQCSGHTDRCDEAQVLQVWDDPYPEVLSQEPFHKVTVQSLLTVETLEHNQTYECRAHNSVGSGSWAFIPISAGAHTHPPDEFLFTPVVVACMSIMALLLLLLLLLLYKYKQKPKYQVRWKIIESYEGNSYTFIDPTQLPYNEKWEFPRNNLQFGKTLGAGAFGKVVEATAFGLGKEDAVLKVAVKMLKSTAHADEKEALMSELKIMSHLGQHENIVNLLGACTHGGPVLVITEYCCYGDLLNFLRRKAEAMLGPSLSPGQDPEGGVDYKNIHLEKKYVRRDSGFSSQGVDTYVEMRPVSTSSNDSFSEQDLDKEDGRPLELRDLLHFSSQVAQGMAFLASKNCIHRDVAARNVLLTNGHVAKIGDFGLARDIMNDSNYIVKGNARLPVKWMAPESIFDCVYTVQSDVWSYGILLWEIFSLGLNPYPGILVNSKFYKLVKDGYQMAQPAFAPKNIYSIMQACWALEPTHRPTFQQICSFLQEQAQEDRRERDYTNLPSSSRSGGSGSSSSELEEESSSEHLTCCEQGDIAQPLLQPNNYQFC
Summed up: (§1)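 Yeast carrying plasmids encoding the RTK were grown in glucose medium to repress expression, then diluted into galactose medium to induce the growth-inhibiting kinase. Compounds at 7 concentrations between 0.2 and 100 μM were scored for restoring growth, graded −/+/++/+++ by maximal growth restoration and the concentration reaching it.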

In the next experiment the target is T2, EGFR (L858R) (Homo sapiens, UniProt P00533, L858R).
T2 construct: expressed in transfected cells; host or cells: yeast
In outline: as §1

Another experiment has as its target T3, ErbB2 (Homo sapiens, UniProt P04626).
T3 construct: expressed in transfected cells; host or cells: yeast
Summed up:
as §1

The target of another experiment is T4, FGFR-2 (Homo sapiens, UniProt P21802).
T4 construct: expressed in transfected cells; host or cells: yeast
T4 sequence (P21802 22-821): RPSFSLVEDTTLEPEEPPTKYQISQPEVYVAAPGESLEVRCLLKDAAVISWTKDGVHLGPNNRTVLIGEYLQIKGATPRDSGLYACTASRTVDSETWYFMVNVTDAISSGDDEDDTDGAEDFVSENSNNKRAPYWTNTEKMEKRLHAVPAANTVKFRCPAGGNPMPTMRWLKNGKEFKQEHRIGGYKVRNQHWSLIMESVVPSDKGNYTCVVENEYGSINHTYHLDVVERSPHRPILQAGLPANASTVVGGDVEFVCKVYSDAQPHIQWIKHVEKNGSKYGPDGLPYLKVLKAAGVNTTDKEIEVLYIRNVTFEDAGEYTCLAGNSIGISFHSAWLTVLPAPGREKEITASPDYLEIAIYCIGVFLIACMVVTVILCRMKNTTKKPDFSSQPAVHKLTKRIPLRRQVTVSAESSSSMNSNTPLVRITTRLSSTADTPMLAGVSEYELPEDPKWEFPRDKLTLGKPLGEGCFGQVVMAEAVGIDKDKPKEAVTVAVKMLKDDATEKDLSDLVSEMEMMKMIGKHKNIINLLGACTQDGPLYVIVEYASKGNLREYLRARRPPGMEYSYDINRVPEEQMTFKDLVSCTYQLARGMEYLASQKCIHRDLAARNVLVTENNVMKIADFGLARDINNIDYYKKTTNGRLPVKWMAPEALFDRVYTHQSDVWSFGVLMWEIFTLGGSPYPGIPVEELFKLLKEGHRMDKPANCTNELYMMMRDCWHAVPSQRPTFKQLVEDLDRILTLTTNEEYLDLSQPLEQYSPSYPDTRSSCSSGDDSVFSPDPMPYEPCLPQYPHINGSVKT
In outline: as §1

Another experiment concerns the target T5, FGFR-3 (Homo sapiens, UniProt P22607).
T5 construct: expressed in transfected cells; host or cells: yeast
Summed up: as §1

A further experiment concerns the target T6, PDGFRa (Homo sapiens, UniProt P16234).
T6 construct: expressed in transfected cells; host or cells: yeast
Summed up: as §1

A further experiment addresses T7, PDGFRb (Homo sapiens, UniProt P09619).
T7 construct: expressed in transfected cells; host or cells: yeast
In outline: as §1

The structures appear in SMILES notation.
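Wherever EGFR (L858R) growth restoration is given: Parenthesized + marks a result obtained in a different yeast background.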

T6 sequence (P16234 24-1089): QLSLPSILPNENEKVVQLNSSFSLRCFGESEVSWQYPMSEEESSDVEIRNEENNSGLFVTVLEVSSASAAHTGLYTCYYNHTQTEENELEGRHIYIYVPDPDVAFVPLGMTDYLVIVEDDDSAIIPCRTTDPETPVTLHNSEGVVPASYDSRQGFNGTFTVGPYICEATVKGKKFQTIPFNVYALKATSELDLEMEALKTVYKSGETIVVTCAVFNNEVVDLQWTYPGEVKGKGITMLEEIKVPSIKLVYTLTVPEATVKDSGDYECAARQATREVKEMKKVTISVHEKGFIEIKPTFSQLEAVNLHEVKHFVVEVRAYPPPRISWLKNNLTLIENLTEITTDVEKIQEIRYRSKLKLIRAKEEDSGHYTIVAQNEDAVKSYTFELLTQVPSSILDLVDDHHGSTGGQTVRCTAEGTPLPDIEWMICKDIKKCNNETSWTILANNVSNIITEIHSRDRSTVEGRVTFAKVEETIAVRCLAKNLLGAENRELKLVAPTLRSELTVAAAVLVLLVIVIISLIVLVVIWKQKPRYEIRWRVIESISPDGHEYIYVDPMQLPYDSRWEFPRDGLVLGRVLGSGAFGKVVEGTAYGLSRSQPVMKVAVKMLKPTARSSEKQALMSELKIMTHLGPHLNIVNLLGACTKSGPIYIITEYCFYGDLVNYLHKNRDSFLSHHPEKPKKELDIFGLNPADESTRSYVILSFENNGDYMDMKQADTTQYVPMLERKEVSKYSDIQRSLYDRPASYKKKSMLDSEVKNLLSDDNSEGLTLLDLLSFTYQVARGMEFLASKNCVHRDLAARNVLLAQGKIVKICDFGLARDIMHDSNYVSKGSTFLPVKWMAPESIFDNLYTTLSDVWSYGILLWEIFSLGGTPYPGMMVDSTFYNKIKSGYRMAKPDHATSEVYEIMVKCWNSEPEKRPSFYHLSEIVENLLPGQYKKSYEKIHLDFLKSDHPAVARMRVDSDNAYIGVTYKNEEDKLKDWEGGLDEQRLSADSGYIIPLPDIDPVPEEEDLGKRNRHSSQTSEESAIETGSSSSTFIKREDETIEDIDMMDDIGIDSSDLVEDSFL
T5 sequence (P22607 23-806): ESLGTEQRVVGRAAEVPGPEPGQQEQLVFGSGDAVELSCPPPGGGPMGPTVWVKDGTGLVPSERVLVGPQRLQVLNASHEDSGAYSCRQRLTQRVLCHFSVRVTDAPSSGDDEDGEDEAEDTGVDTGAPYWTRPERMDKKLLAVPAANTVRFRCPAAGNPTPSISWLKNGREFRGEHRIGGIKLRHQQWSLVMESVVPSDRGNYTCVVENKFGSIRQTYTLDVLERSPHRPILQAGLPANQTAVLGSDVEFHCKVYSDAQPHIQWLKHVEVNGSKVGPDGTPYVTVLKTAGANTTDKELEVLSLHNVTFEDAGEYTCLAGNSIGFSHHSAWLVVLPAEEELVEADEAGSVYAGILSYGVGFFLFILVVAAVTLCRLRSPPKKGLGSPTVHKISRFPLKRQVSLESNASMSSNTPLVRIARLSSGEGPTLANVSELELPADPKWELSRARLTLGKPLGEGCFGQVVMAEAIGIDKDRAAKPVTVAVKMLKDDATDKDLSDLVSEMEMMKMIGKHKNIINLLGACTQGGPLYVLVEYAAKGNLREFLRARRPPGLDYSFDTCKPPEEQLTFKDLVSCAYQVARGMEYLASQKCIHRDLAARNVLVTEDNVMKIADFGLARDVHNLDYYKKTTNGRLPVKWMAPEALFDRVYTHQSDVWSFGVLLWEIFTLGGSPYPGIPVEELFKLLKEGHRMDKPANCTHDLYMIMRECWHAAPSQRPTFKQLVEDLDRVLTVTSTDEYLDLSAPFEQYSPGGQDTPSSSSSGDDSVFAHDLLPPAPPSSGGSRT
T7 sequence (P09619 33-1106): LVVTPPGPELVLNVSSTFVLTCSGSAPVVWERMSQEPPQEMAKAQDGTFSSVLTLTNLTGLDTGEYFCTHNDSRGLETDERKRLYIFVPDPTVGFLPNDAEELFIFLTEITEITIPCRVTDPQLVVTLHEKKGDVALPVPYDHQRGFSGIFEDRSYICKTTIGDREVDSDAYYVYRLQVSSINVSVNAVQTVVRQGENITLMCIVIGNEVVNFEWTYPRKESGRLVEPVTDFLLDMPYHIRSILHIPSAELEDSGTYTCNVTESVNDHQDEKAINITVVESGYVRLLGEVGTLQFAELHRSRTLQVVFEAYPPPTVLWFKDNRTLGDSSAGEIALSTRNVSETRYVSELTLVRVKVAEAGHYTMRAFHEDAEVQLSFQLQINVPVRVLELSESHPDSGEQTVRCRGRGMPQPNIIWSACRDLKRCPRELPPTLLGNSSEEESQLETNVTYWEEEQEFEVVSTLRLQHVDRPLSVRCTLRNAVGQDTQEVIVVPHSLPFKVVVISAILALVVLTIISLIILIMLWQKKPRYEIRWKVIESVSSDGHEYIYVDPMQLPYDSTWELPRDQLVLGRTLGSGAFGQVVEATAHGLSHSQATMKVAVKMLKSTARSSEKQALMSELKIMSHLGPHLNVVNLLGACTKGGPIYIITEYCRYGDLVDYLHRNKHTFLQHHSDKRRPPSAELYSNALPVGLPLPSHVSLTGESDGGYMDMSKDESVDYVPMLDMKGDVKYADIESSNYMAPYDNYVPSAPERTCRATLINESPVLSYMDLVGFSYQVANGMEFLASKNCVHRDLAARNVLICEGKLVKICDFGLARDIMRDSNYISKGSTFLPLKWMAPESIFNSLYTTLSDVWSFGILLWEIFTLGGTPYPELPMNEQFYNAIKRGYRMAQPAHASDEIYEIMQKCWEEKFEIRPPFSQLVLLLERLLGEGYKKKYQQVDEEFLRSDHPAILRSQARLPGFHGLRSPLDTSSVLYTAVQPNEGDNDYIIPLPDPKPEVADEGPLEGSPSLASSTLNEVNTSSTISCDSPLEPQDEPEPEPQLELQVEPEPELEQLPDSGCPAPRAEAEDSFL

For the compound `Cc1nccn2c(Nc3cccc(Cl)c3)c(-c3ccccc3)nc12` [compound 3, (3-Chloro-phenyl)-(8-methyl-2-phenyl-imidazo[1,2-a]pyrazin-3-yl)-amine], the CSF-1R growth restoration entry at CSF-1R is on record as “−”. Moreover, the “EGFR (L858R) growth restoration” value at EGFR (L858R) was “+”. The ErbB2 growth restoration entry on ErbB2 is recorded as “−”. For the same compound, at FGFR-2, the FGFR-2 growth restoration result is “−”. The FGFR-3 growth restoration entry at FGFR-3 is recorded as “−”. At PDGFRa, the PDGFRa growth restoration entry is given as “−”. The PDGFRb growth restoration entry at PDGFRb is recorded as “−”.

Turning to `COc1cccc(-c2nc3cnccn3c2Nc2cccc(Cl)c2)c1` [compound 7, (3-Chloro-phenyl)-[2-(3-methoxy-phenyl)-imidazo[1,2-a]pyrazin-3-yl]-amine], the CSF-1R growth restoration entry on CSF-1R is listed as “−”. Further, the “EGFR (L858R) growth restoration” value at EGFR (L858R) was “+”. The ErbB2 growth restoration result on ErbB2 was “−”. Further, the FGFR-2 growth restoration entry on FGFR-2 is reported as “−”. Besides, at FGFR-3, the FGFR-3 growth restoration entry is listed as “−”. Moreover, the PDGFRa growth restoration result on PDGFRa is on record as “−”. Also, the PDGFRb growth restoration entry on PDGFRb is given as “−”.

For the compound `Brc1cccc(Nc2c(-c3ccccc3)nc3cnccn23)c1` [compound 14, (3-Bromo-phenyl)-(2-phenyl-imidazo[1,2-a]pyrazin-3-yl)-amine], the CSF-1R growth restoration result at CSF-1R is listed as “−”. Also, the “EGFR (L858R) growth restoration” value on EGFR (L858R) is reported as “−”. The ErbB2 growth restoration result at ErbB2 was “−”. For the same compound, at FGFR-2, the FGFR-2 growth restoration entry is “−”. For the same compound, the FGFR-3 growth restoration entry on FGFR-3 was “−”. Besides, at PDGFRa, the PDGFRa growth restoration result was “−”. Also, at PDGFRb, the PDGFRb growth restoration result is recorded as “−”.

In the case of `Clc1ccc(Nc2c(-c3ccccc3)nc3cnccn23)cc1` [compound 16, (4-Chloro-phenyl)-(2-phenyl-imidazo[1,2-a]pyrazin-3-yl)-amine], the CSF-1R growth restoration result at CSF-1R is listed as “−”. Also, the “EGFR (L858R) growth restoration” value on EGFR (L858R) is reported as “−”. Besides, the ErbB2 growth restoration result at ErbB2 is “−”. Further, at FGFR-2, the FGFR-2 growth restoration result is “−”. In addition, the FGFR-3 growth restoration result at FGFR-3 is on record as “−”. In addition, the PDGFRa growth restoration result at PDGFRa is “−”. Further, on PDGFRb, the PDGFRb growth restoration result is reported as “−”.

With `c1ccc(Nc2c(-c3ccccc3)nc3cnccn23)cc1` [compound 23, Phenyl-(2-phenyl-imidazo[1,2-a]pyrazin-3-yl)-amine], the CSF-1R growth restoration entry on CSF-1R was “−”. Moreover, at EGFR (L858R), the “EGFR (L858R) growth restoration” value is listed as “+”. Also, the ErbB2 growth restoration entry on ErbB2 was “−”. Moreover, the FGFR-2 growth restoration result at FGFR-2 is reported as “−”. Further, on FGFR-3, the FGFR-3 growth restoration entry is on record as “−”. Also, the PDGFRa growth restoration result at PDGFRa is listed as “−”. Moreover, on PDGFRb, the PDGFRb growth restoration result is given as “−”.

With `Cc1cccc(Nc2c(-c3ccccc3)nc3cnccn23)c1` [compound 34, (2-Phenyl-imidazo[1,2-a]pyrazin-3-yl)-m-tolyl-amine], the CSF-1R growth restoration result at CSF-1R was “−”. Moreover, the “EGFR (L858R) growth restoration” value on EGFR (L858R) is on record as “−”. Besides, on ErbB2, the ErbB2 growth restoration entry was “−”. The FGFR-2 growth restoration entry on FGFR-2 is listed as “−”. The FGFR-3 growth restoration result at FGFR-3 is “−”. At PDGFRa, the PDGFRa growth restoration result was “−”. For the same compound, on PDGFRb, the PDGFRb growth restoration entry is given as “−”.

For `Clc1cccc(Nc2c(-c3ccccc3)nc3cnccn23)c1` [compound 35, (3-Chloro-phenyl)-(2-phenyl-imidazo[1,2-a]pyrazin-3-yl)-amine], the CSF-1R growth restoration result on CSF-1R is listed as “−”. The “EGFR (L858R) growth restoration” value on EGFR (L858R) is “+”. Moreover, at ErbB2, the ErbB2 growth restoration result is reported as “−”. Also, the FGFR-2 growth restoration entry at FGFR-2 is “−”. Moreover, the FGFR-3 growth restoration entry on FGFR-3 is on record as “−”. The PDGFRa growth restoration result on PDGFRa is reported as “−”. Moreover, on PDGFRb, the PDGFRb growth restoration entry was “−”.

On to `Cc1nccn2c(Nc3ccccc3)c(-c3ccccc3)nc12` [compound 39, (8-Methyl-2-phenyl-imidazo[1,2-a]pyrazin-3-yl)-phenyl-amine], for which the CSF-1R growth restoration entry at CSF-1R was “−”. Besides, the “EGFR (L858R) growth restoration” value at EGFR (L858R) is reported as “+”. Moreover, on ErbB2, the ErbB2 growth restoration result is reported as “−”. Also, the FGFR-2 growth restoration entry at FGFR-2 was “−”. Also, on FGFR-3, the FGFR-3 growth restoration result is reported as “−”. Also, the PDGFRa growth restoration result on PDGFRa is on record as “−”. On PDGFRb, the PDGFRb growth restoration entry is “−”.

For `Cc1cccc(Nc2c(-c3ccccc3)nc3c(C)nccn23)c1` [compound 43, (8-Methyl-2-phenyl-imidazo[1,2-a]pyrazin-3-yl)-m-tolyl-amine], the CSF-1R growth restoration result on CSF-1R was “−”. For the same compound, on EGFR (L858R), the “EGFR (L858R) growth restoration” value is reported as “−”. Moreover, the ErbB2 growth restoration result at ErbB2 is “−”. In addition, the FGFR-2 growth restoration result on FGFR-2 is “−”. On FGFR-3, the FGFR-3 growth restoration entry was “−”. For the same compound, on PDGFRa, the PDGFRa growth restoration result was “−”. In addition, the PDGFRb growth restoration result at PDGFRb was “−”.

`Cc1nccn2c(Nc3cccc(F)c3)c(-c3ccccc3)nc12` [compound 44, (3-Fluoro-phenyl)-(8-methyl-2-phenyl-imidazo[1,2-a]pyrazin-3-yl)-amine]: the CSF-1R growth restoration result on CSF-1R is reported as “−”. Besides, at EGFR (L858R), the “EGFR (L858R) growth restoration” value is “+”. The ErbB2 growth restoration result on ErbB2 was “−”. Moreover, the FGFR-2 growth restoration entry on FGFR-2 is “−”. Besides, the FGFR-3 growth restoration result at FGFR-3 was “−”. Besides, on PDGFRa, the PDGFRa growth restoration entry is given as “−”. Besides, the PDGFRb growth restoration entry at PDGFRb is on record as “−”.

Turning to `Cc1nccn2c(Nc3ccc(F)c(F)c3)c(-c3ccccc3)nc12` [compound 45, (3,4-Difluoro-phenyl)-(8-methyl-2-phenyl-imidazo[1,2-a]pyrazin-3-yl)-amine], the CSF-1R growth restoration result on CSF-1R was “−”. Moreover, on EGFR (L858R), the “EGFR (L858R) growth restoration” value was “−”. Further, the ErbB2 growth restoration entry on ErbB2 is “−”. Further, the FGFR-2 growth restoration entry at FGFR-2 is listed as “−”. Besides, the FGFR-3 growth restoration result at FGFR-3 is given as “−”. Moreover, the PDGFRa growth restoration result on PDGFRa is “−”. At PDGFRb, the PDGFRb growth restoration result is “−”.

Values taken from patent publication US20070149535A1, “Protein kinase inhibitors” (ONCALIS AG, priority 2004, published 2007).
